We go through 1 sequence from patent EP0671947B1, “COMPOSITIONS FOR ELICITING CYTOTOXIC T-[…] AGAINST VIRUSES” (BOARD OF REGENTS THE UNIVERSITY OF TEXAS SYSTEM, priority 1991, dated 1993).

Where “and” joins values, the source holds several entries; their conditions need not be identical. Equal values may be shown once.

The subject of one data set is HIV-1 IIIB. The data set can be described thus: Effect of V3 loop peptides on HIV-1 IIIB infection of human cells (RT activity). The data set is classed as cell-based. The source says:
As detailed in TABLE 11A, these peptides include D23, D24, D25, D26, D30, D35, D38, D39, D40 and D44, which reflect a variety of strains such as mn, rf, wmj-3, sc, z6, eli, mn (y-l) and mn (y-p). However, it is important to note that this assay was confined specifically to inhibiting the infection of the heterologous strain HIV-1 IIIB. […]

A further data set relates to PBMC. The data set can be described thus: PBMC proliferation after immunization with a mixture of eight synthetic peptides. The format is in vivo, rhesus monkeys. To be noted: three rhesus monkeys immunized with mixture of eight peptides. As for the experimental part: In the present studies, three rhesus monkeys (#7, #23 and #283C) were immunized subcutaneously with 1 ml (0.1 ml/site) of a mixture of eight synthetic peptides (300 µg of each peptide in sterile water) emulsified in complete Freund's adjuvant at 1:1 ratio. […] At 3 and 7 weeks after the primary immunization, two booster injections of the peptide mixture (150 µg of each peptide in sterile water) emulsified in incomplete Freund's adjuvant were given to each monkey. Monkey #7 was terminated after 34 weeks, for health reasons unrelated to the study, while the remaining two monkeys (#283C and #23) received one additional booster injection at 25 weeks.
At two week intervals following the first immunization of each animal, 15 ml of whole heparinized blood was collected by venous puncture. The peripheral blood mononuclear cells (PBMC) were separated by standard ficoll-hypaque centrifugation and employed in proliferation assays. The PBMCs were monitored every two weeks for a period of 32 weeks for proliferative responses against individual peptides and recombinant gp160.

The format of data set [1] is in vivo, Balb/c mice. Conditions: mouse, in vivo.
In data set [2] the test system is HIV-1. The format is cell-based. To be noted: seven days after infection.
The test system of another data set is 3A9. The format is in vivo, Balb/c mice. Conditions: mouse, in vivo.
Data set [3] has as its system envelope protein gp160 of HIV-1 IIIB, mn or rf strains. The data set is classed as cell-based.
Data set [4] concerns HIV-1. The data set is classed as cell-based. To be noted: various concentrations, seven days after infection.
Data set [5] has as its system HIV-1. The format is cell-based, HIV-1 IIIB.
Data set [6] deals with HIV-1. The data set is classed as cell-based. To be noted: various concentrations, seven days after infection. The source holds these as a separate data set.

With RIQRGPGRAFVTIGK [Peptide R15K], in the data set with P815 (monomeric peptide), the “cytotoxicity after pre-treatment of effector cells with anti-CD4 MAbs plus complement, or complement alone” value is “no significant effect”. Further, in the data set with P815 (mouse, in vivo), the “Lysis of MHC-matched target cells without peptide pre-treatment (P815)” value was “not observed”; the “cytotoxicity after treatment of CTL effectors with anti-CD8 MAbs and rabbit complement” value was “abolished the cytotoxicity”; the “lysis of P815 cells infected with recombinant vaccinia virus expressing HIV gp160 (VPE16)” value was “specifically lysed”; the “mice with CTLs specifically lysing P815 pre-incubated with the peptide” value is 8 of 12 and 13 of 13 and 6 of 8. Also, the “% RT INHIBITION” value with HIV-1 IIIB was found to be 73.2%. Further, in the data set on HIV-1 IIIB (No Peptide 7528, Uninfected cells 558), the “RT ACTIVITY (CPM)” value is 2021 CPM. Also, the “proliferative responses of PBMCs (in words)” value with PBMC is given as “A significant response was not detected”. Also, the “time to CTL induction in the popliteal lymph node” value in [1] is reported as at most 7 days. Besides, the “HIV-1 infection of MT-4 cells, reverse transcriptase activity in culture medium” value with HIV-1 [2] is given as “inhibits HIV-1 infection”. In addition, the “% Specific Lysis” value in the data set with 3A9 was 7.0% and 0.6% and 0% and 10.0% and 8.0%. The syncytia entry in data set [3] was “no syncytia were observed”. Moreover, the “HIV-1 infection of H9 cells, reverse transcriptase activity in culture supernatant” value in the data set on HIV-1 [4] is “inhibits HIV-1 infection”. Also, the “inhibition of HIV-1 infection of primary human T cells” value in the data set with HIV-1 [5] was 92%. Further, the “HIV-1 infection of CEM cells, reverse transcriptase activity in culture supernatant” value with HIV-1 [6] is recorded as “inhibits HIV-1 infection”. Moreover, for the setting “bovine, fetal calf serum, 24 h”, the “inhibitory activity retained, of control untreated peptide” value came to 50%. For the same sequence, the “time for which full strength inhibitory activity was retained” value (incubation in fetal calf serum at 37°C, tested at 1 µg/ml on MT-4 cells) is “up to 4 hours”.
